Results as given in patent publication US7118895B2, “Process for producing aglycon by using diglycosidase and flavor-improved food containing the aglycon and converting agent to be used in the process” (Amano Enzyme Inc., priority 2000, dated 2006).

System: Crude diglycosidase
Test: Examination of pH in the conversion into isoflavone aglycons by diglycosidase using soybean materials
Type: biochemical, Penicillium multicolor IAM7153
Set-up: Decomposition efficiency of genistin family in soymilk / Decomposition efficiency of genistin family in defatted soybean / Decomposition efficiency of daidzin family in defatted soybean: concentration or dose not given beside the values
Conditions: for Decomposition efficiency of daidzin family in roasted soy flour: 55° C.
In short: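 Conversion of glycosides to isoflavone aglycons was followed by HPLC after crude diglycosidase (1.88 AU/mL enzyme solution) acted at 55° C for up to 6 h on four soy materials, 50 mg each, held at pH 2–11.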

[1] = pH4.8, heat treatment of enzyme: no, reaction time 0 h
[2] = pH4.8, heat treatment of enzyme: no, reaction time 1 h
[3] = pH4.8, heat treatment of enzyme: no, reaction time 3 h
[4] = pH4.8, heat treatment of enzyme: no, reaction time 6 h
[5] = pH4.8, heat treatment of enzyme: yes, reaction time 6 h
[6] = pH6.6, heat treatment of enzyme: no, reaction time 0 h
[7] = pH6.6, heat treatment of enzyme: no, reaction time 1 h
[8] = pH6.6, heat treatment of enzyme: no, reaction time 3 h
[9] = pH6.6, heat treatment of enzyme: no, reaction time 6 h
[10] = pH6.6, heat treatment of enzyme: yes, reaction time 6 h

O=c1c(-c2ccc(O)cc2)coc2cc(O)ccc12 [daidzein]
Decomposition efficiency of daidzin family in concentrated soybean protein (pH1.6, heat treatment of enzyme: no, reaction time 0 h): 3.0%
Decomposition efficiency of daidzin family in concentrated soybean protein (pH1.6, heat treatment of enzyme: no, reaction time 1 h): 3.3%
Decomposition efficiency of daidzin family in concentrated soybean protein (pH1.6, heat treatment of enzyme: no, reaction time 3 h): 3.3%
Decomposition efficiency of daidzin family in concentrated soybean protein (pH1.6, heat treatment of enzyme: no, reaction time 6 h): 3.4%
Decomposition efficiency of daidzin family in concentrated soybean protein (pH1.6, heat treatment of enzyme: yes, reaction time 6 h): 2.9%
Decomposition efficiency of daidzin family in roasted soy flour (pH2, heat treatment of enzyme no, reaction time 0 h): 3.5
Decomposition efficiency of daidzin family in roasted soy flour (pH2, heat treatment of enzyme no, reaction time 1 h): 5.4
Decomposition efficiency of daidzin family in roasted soy flour (pH2, heat treatment of enzyme no, reaction time 3 h): 4.8
Decomposition efficiency of daidzin family in roasted soy flour (pH2, heat treatment of enzyme no, reaction time 6 h): 4.5
Decomposition efficiency of daidzin family in roasted soy flour (pH2, heat treatment of enzyme yes, reaction time 6 h): 3.8
Decomposition efficiency of daidzin family in soymilk (pH2.3, heat treatment of enzyme: no, reaction time 0 h): 10.5%
Decomposition efficiency of daidzin family in soymilk (pH2.3, heat treatment of enzyme: no, reaction time 1 h): 45.3%
Decomposition efficiency of daidzin family in soymilk (pH2.3, heat treatment of enzyme: no, reaction time 3 h): 48.9%
Decomposition efficiency of daidzin family in soymilk (pH2.3, heat treatment of enzyme: no, reaction time 6 h): 51.5%
Decomposition efficiency of daidzin family in soymilk (pH2.3, heat treatment of enzyme: yes, reaction time 6 h): 10.2%
Decomposition efficiency of daidzin family in defatted soybean (pH2.6, heat treatment of enzyme: no, reaction time 0 h): 13.2%
Decomposition efficiency of daidzin family in defatted soybean (pH2.6, heat treatment of enzyme: no, reaction time 1 h): 21.3%
Decomposition efficiency of daidzin family in defatted soybean (pH2.6, heat treatment of enzyme: no, reaction time 3 h): 40.9%
Decomposition efficiency of daidzin family in defatted soybean (pH2.6, heat treatment of enzyme: no, reaction time 6 h): 42.9%
Decomposition efficiency of daidzin family in defatted soybean (pH2.6, heat treatment of enzyme: yes, reaction time 6 h): 13.0%
Decomposition efficiency of daidzin family in concentrated soybean protein (pH2.7, heat treatment of enzyme: no, reaction time 0 h): 3.0%
Decomposition efficiency of daidzin family in concentrated soybean protein (pH2.7, heat treatment of enzyme: no, reaction time 1 h): 40.7%
Decomposition efficiency of daidzin family in concentrated soybean protein (pH2.7, heat treatment of enzyme: no, reaction time 3 h): 41.6%
Decomposition efficiency of daidzin family in concentrated soybean protein (pH2.7, heat treatment of enzyme: no, reaction time 6 h): 45.0%
Decomposition efficiency of daidzin family in concentrated soybean protein (pH2.7, heat treatment of enzyme: yes, reaction time 6 h): 3.2%
Decomposition efficiency of daidzin family in roasted soy flour (pH3, heat treatment of enzyme no, reaction time 0 h): 3.5
Decomposition efficiency of daidzin family in roasted soy flour (pH3, heat treatment of enzyme no, reaction time 1 h): 54.0
Decomposition efficiency of daidzin family in roasted soy flour (pH3, heat treatment of enzyme no, reaction time 3 h): 60.4
Decomposition efficiency of daidzin family in roasted soy flour (pH3, heat treatment of enzyme no, reaction time 6 h): 59.3
Decomposition efficiency of daidzin family in roasted soy flour (pH3, heat treatment of enzyme yes, reaction time 6 h): 3.7
Decomposition efficiency of daidzin family in defatted soybean (pH3.4, heat treatment of enzyme: no, reaction time 0 h): 13.2%
Decomposition efficiency of daidzin family in defatted soybean (pH3.4, heat treatment of enzyme: no, reaction time 1 h): 60.6%
Decomposition efficiency of daidzin family in defatted soybean (pH3.4, heat treatment of enzyme: no, reaction time 3 h): 65.5%
Decomposition efficiency of daidzin family in defatted soybean (pH3.4, heat treatment of enzyme: no, reaction time 6 h): 71.0%
Decomposition efficiency of daidzin family in defatted soybean (pH3.4, heat treatment of enzyme: yes, reaction time 6 h): 15.1%
Decomposition efficiency of daidzin family in soymilk (pH3.5, heat treatment of enzyme: no, reaction time 0 h): 10.5%
Decomposition efficiency of daidzin family in soymilk (pH3.5, heat treatment of enzyme: no, reaction time 1 h): 64.4%
Decomposition efficiency of daidzin family in soymilk (pH3.5, heat treatment of enzyme: no, reaction time 3 h): 84.9%
Decomposition efficiency of daidzin family in soymilk (pH3.5, heat treatment of enzyme: no, reaction time 6 h): 92.6%
Decomposition efficiency of daidzin family in soymilk (pH3.5, heat treatment of enzyme: yes, reaction time 6 h): 10.6%
Decomposition efficiency of daidzin family in concentrated soybean protein (pH3.7, heat treatment of enzyme: no, reaction time 0 h): 3.0%
Decomposition efficiency of daidzin family in concentrated soybean protein (pH3.7, heat treatment of enzyme: no, reaction time 1 h): 58.4%
Decomposition efficiency of daidzin family in concentrated soybean protein (pH3.7, heat treatment of enzyme: no, reaction time 3 h): 67.0%
Decomposition efficiency of daidzin family in concentrated soybean protein (pH3.7, heat treatment of enzyme: no, reaction time 6 h): 74.8%
Decomposition efficiency of daidzin family in concentrated soybean protein (pH3.7, heat treatment of enzyme: yes, reaction time 6 h): 3.1%
Decomposition efficiency of daidzin family in roasted soy flour (pH4, heat treatment of enzyme no, reaction time 0 h): 3.5
Decomposition efficiency of daidzin family in roasted soy flour (pH4, heat treatment of enzyme no, reaction time 1 h): 65.6
Decomposition efficiency of daidzin family in roasted soy flour (pH4, heat treatment of enzyme no, reaction time 3 h): 79.5
Decomposition efficiency of daidzin family in roasted soy flour (pH4, heat treatment of enzyme no, reaction time 6 h): 88.9
Decomposition efficiency of daidzin family in roasted soy flour (pH4, heat treatment of enzyme yes, reaction time 6 h): 3.5
Decomposition efficiency of daidzin family in defatted soybean [1]: 15.7%
Decomposition efficiency of daidzin family in soymilk [1]: 9.0%
Decomposition efficiency of daidzin family in defatted soybean [2]: 59.5%
Decomposition efficiency of daidzin family in soymilk [2]: 52.6%
Decomposition efficiency of daidzin family in defatted soybean [3]: 63.3%
Decomposition efficiency of daidzin family in soymilk [3]: 66.1%
Decomposition efficiency of daidzin family in defatted soybean [4]: 69.5%
Decomposition efficiency of daidzin family in soymilk [4]: 79.7%
Decomposition efficiency of daidzin family in defatted soybean [5]: 24.5%
Decomposition efficiency of daidzin family in soymilk [5]: 9.1%
Decomposition efficiency of daidzin family in roasted soy flour (pH5, heat treatment of enzyme no, reaction time 0 h): 3.5
Decomposition efficiency of daidzin family in roasted soy flour (pH5, heat treatment of enzyme no, reaction time 1 h): 61.5
Decomposition efficiency of daidzin family in roasted soy flour (pH5, heat treatment of enzyme no, reaction time 3 h): 75.3
Decomposition efficiency of daidzin family in roasted soy flour (pH5, heat treatment of enzyme no, reaction time 6 h): 84.8
Decomposition efficiency of daidzin family in roasted soy flour (pH5, heat treatment of enzyme yes, reaction time 6 h): 4.4
Decomposition efficiency of daidzin family in concentrated soybean protein (pH5.1, heat treatment of enzyme: no, reaction time 0 h): 3.0%
Decomposition efficiency of daidzin family in concentrated soybean protein (pH5.1, heat treatment of enzyme: no, reaction time 1 h): 56.6%
Decomposition efficiency of daidzin family in concentrated soybean protein (pH5.1, heat treatment of enzyme: no, reaction time 3 h): 63.0%
Decomposition efficiency of daidzin family in concentrated soybean protein (pH5.1, heat treatment of enzyme: no, reaction time 6 h): 68.8%
Decomposition efficiency of daidzin family in concentrated soybean protein (pH5.1, heat treatment of enzyme: yes, reaction time 6 h): 3.2%
Decomposition efficiency of daidzin family in defatted soybean (pH5.4, heat treatment of enzyme: no, reaction time 0 h): 15.7%
Decomposition efficiency of daidzin family in defatted soybean (pH5.4, heat treatment of enzyme: no, reaction time 1 h): 55.8%
Decomposition efficiency of daidzin family in defatted soybean (pH5.4, heat treatment of enzyme: no, reaction time 3 h): 58.5%
Decomposition efficiency of daidzin family in defatted soybean (pH5.4, heat treatment of enzyme: no, reaction time 6 h): 63.1%
Decomposition efficiency of daidzin family in defatted soybean (pH5.4, heat treatment of enzyme: yes, reaction time 6 h): 55.1%
Decomposition efficiency of daidzin family in soymilk (pH6.2, heat treatment of enzyme: no, reaction time 0 h): 9.0%
Decomposition efficiency of daidzin family in soymilk (pH6.2, heat treatment of enzyme: no, reaction time 1 h): 45.9%
Decomposition efficiency of daidzin family in soymilk (pH6.2, heat treatment of enzyme: no, reaction time 3 h): 53.6%
Decomposition efficiency of daidzin family in soymilk (pH6.2, heat treatment of enzyme: no, reaction time 6 h): 58.1%
Decomposition efficiency of daidzin family in soymilk (pH6.2, heat treatment of enzyme: yes, reaction time 6 h): 9.7%
Decomposition efficiency of daidzin family in roasted soy flour (pH6.5, heat treatment of enzyme no, reaction time 0 h): 3.4
Decomposition efficiency of daidzin family in roasted soy flour (pH6.5, heat treatment of enzyme no, reaction time 1 h): 54.6
Decomposition efficiency of daidzin family in roasted soy flour (pH6.5, heat treatment of enzyme no, reaction time 3 h): 60.8
Decomposition efficiency of daidzin family in roasted soy flour (pH6.5, heat treatment of enzyme no, reaction time 6 h): 65.6
Decomposition efficiency of daidzin family in roasted soy flour (pH6.5, heat treatment of enzyme yes, reaction time 6 h): 4.7
Decomposition efficiency of daidzin family in concentrated soybean protein [6]: 3.0%
Decomposition efficiency of daidzin family in defatted soybean [6]: 13.2%
Decomposition efficiency of daidzin family in concentrated soybean protein [7]: 51.0%
Decomposition efficiency of daidzin family in defatted soybean [7]: 54.1%
Decomposition efficiency of daidzin family in concentrated soybean protein [8]: 57.1%
Decomposition efficiency of daidzin family in defatted soybean [8]: 56.0%
Decomposition efficiency of daidzin family in concentrated soybean protein [9]: 58.8%
Decomposition efficiency of daidzin family in defatted soybean [9]: 58.2%
Decomposition efficiency of daidzin family in concentrated soybean protein [10]: 3.2%
Decomposition efficiency of daidzin family in defatted soybean [10]: 49.5%
Decomposition efficiency of daidzin family in soymilk (pH7.2, heat treatment of enzyme: no, reaction time 0 h): 9.0%
Decomposition efficiency of daidzin family in soymilk (pH7.2, heat treatment of enzyme: no, reaction time 1 h): 43.6%
Decomposition efficiency of daidzin family in soymilk (pH7.2, heat treatment of enzyme: no, reaction time 3 h): 47.6%
Decomposition efficiency of daidzin family in soymilk (pH7.2, heat treatment of enzyme: no, reaction time 6 h): 51.8%
Decomposition efficiency of daidzin family in soymilk (pH7.2, heat treatment of enzyme: yes, reaction time 6 h): 10.2%
Decomposition efficiency of daidzin family in defatted soybean (pH7.8, heat treatment of enzyme: no, reaction time 0 h): 13.3%
Decomposition efficiency of daidzin family in defatted soybean (pH7.8, heat treatment of enzyme: no, reaction time 1 h): 43.1%
Decomposition efficiency of daidzin family in defatted soybean (pH7.8, heat treatment of enzyme: no, reaction time 3 h): 48.4%
Decomposition efficiency of daidzin family in defatted soybean (pH7.8, heat treatment of enzyme: no, reaction time 6 h): 51.9%
Decomposition efficiency of daidzin family in defatted soybean (pH7.8, heat treatment of enzyme: yes, reaction time 6 h): 21.7%
Decomposition efficiency of daidzin family in roasted soy flour (pH8.5, heat treatment of enzyme no, reaction time 0 h): 3.8
Decomposition efficiency of daidzin family in roasted soy flour (pH8.5, heat treatment of enzyme no, reaction time 1 h): 36.9
Decomposition efficiency of daidzin family in roasted soy flour (pH8.5, heat treatment of enzyme no, reaction time 3 h): 46.4
Decomposition efficiency of daidzin family in roasted soy flour (pH8.5, heat treatment of enzyme no, reaction time 6 h): 51.8
Decomposition efficiency of daidzin family in roasted soy flour (pH8.5, heat treatment of enzyme yes, reaction time 6 h): 3.9
Decomposition efficiency of daidzin family in concentrated soybean protein (pH8.6, heat treatment of enzyme: no, reaction time 0 h): 3.2%
Decomposition efficiency of daidzin family in concentrated soybean protein (pH8.6, heat treatment of enzyme: no, reaction time 1 h): 9.9%
Decomposition efficiency of daidzin family in concentrated soybean protein (pH8.6, heat treatment of enzyme: no, reaction time 3 h): 15.9%
Decomposition efficiency of daidzin family in concentrated soybean protein (pH8.6, heat treatment of enzyme: no, reaction time 6 h): 27.4%
Decomposition efficiency of daidzin family in concentrated soybean protein (pH8.6, heat treatment of enzyme: yes, reaction time 6 h): 3.2%
Decomposition efficiency of daidzin family in soymilk (pH11.6, heat treatment of enzyme: no, reaction time 0 h): 8.7%
Decomposition efficiency of daidzin family in soymilk (pH11.6, heat treatment of enzyme: no, reaction time 1 h): 43.6%
Decomposition efficiency of daidzin family in soymilk (pH11.6, heat treatment of enzyme: no, reaction time 3 h): 49.6%
Decomposition efficiency of daidzin family in soymilk (pH11.6, heat treatment of enzyme: no, reaction time 6 h): 52.3%
Decomposition efficiency of daidzin family in soymilk (pH11.6, heat treatment of enzyme: yes, reaction time 6 h): 9.3%
